Bounds are passed on as bounds.

Series [1] relates to Plasmodium falciparum. Kind of series: Antimalarial activity against chloroquine-sensitive Plasmodium falciparum 3D7 incubated for 72 hrs by SYBR Green 1 assay. Type of series: functional, organism-based. The following applies: 3D7, 72 h.
The nature of series [2]: Cytotoxicity against african green monkey Vero cells after 72 hrs by MTT assay. Type of series: cell-based. Conditions: chlorocebus sabaeus.
Series [3] is described as follows: Selectivity index, ratio of CC50 for african green monkey Vero cells to IC50 for chloroquine-sensitive Plasmodium falciparum 3D7. In kind it is functional.
For series [4], the system named is Plasmodium falciparum. Kind of series: Antimalarial activity against chloroquine-resistant Plasmodium falciparum K1 incubated for 72 hrs by SYBR Green 1 assay. In kind it is functional, organism-based. Conditions: K1, 72 h.
Series [5] is described as follows: Selectivity index, ratio of CC50 for african green monkey Vero cells to IC50 for chloroquine-resistant Plasmodium falciparum K1. Type of series: functional.

`CNC1=C([N+](=O)[O-])C(c2ccc(N3CCN(c4ccnc5cc(Cl)ccc45)CC3)cc2)c2cc(Br)ccc2O1` (stereo not drawn): the IC50 in the series on Plasmodium falciparum [1] was 1.88 µM; with Plasmodium falciparum [4] it was 1.75 µM. The CC50 at 72 h in series [2] is 88.6 µM. The entries for the “Ratio CC50/IC50” value in series [3] and in series [5] were 47.1 and 50.6, respectively.

On to `CNC1=C([N+](=O)[O-])C(c2ccc(N3CCN(c4ccnc5cc(Cl)ccc45)CC3)cc2)c2cc([N+](=O)[O-])ccc2O1` (stereo not drawn), for which the results for the IC50 in the series on Plasmodium falciparum [1] and in the series with Plasmodium falciparum [4] were 0.62 µM and 1.78 µM, respectively. In series [2], this compound returned a cytotoxic concentration (CC50) at 72 h of 31.9 µM. The results for the “Ratio CC50/IC50” value in series [3] and in series [5] were 51.4 and 17.9, respectively.

`CNC1=C([N+](=O)[O-])C(c2ccc(N3CCCN(c4ccnc5cc(Cl)ccc45)CC3)cc2)c2ccccc2O1` (stereo not drawn): the concentration for half-maximal inhibition (IC50) in the series with Plasmodium falciparum [1] and with Plasmodium falciparum [4] was more than 5 µM in each case. This compound came in with a CC50 at 72 h in series [2] of 91.4 µM. Besides, in series [3], the “Ratio CC50/IC50” value was less than 18.3.

With `CNC1=C([N+](=O)[O-])C(c2ccc(N3CCN(c4ccnc5cc(Cl)ccc45)CC3)cc2)c2cc(Br)cc(Br)c2O1` (stereo not drawn), the IC50 with Plasmodium falciparum [1] is more than 5 µM; in the series with Plasmodium falciparum [4], 2.93 µM. In series [2], this compound registered a cytotoxic concentration (CC50) at 72 h of more than 200 µM. Besides, the “Ratio CC50/IC50” value in series [5] is more than 68.2.

For the compound `CNC1=C([N+](=O)[O-])C(c2ccc(N3CCN(c4ccnc5cc(Cl)ccc45)CC3)cc2)c2cccc(OC)c2O1` (stereo not drawn), the half-maximal inhibitory concentration (IC50) amounted to 2.47 µM with Plasmodium falciparum [1] and 2.4 µM in the series with Plasmodium falciparum [4]. In series [2], this compound gave a CC50 at 72 h of 21.8 µM. Besides, the “Ratio CC50/IC50” value amounted to 8.8 in series [3] and 9.1 in series [5].

Regarding `CNC1=C([N+](=O)[O-])C(c2ccc(N3CCN(c4ccnc5cc(Cl)ccc45)CC3)cc2)c2ccccc2O1` (stereo not drawn), the values for the half-maximal inhibitory concentration (IC50) in the series on Plasmodium falciparum [1] and with Plasmodium falciparum [4] were 1.11 µM and 3.38 µM, respectively. For the same compound, the cytotoxic concentration (CC50) at 72 h in series [2] is more than 200 µM. Moreover, the “Ratio CC50/IC50” value is more than 180.2 in series [3] and more than 59.2 in series [5].

For `O=[N+]([O-])C1=C(NCc2ccccc2)Oc2ccccc2C1c1ccc(N2CCN(c3ccnc4cc(Cl)ccc34)CC2)cc1` (stereo not drawn), the IC50 in the series on Plasmodium falciparum [1] and with Plasmodium falciparum [4] was more than 5 µM in each case. Besides, in series [2], the cytotoxic concentration (CC50) at 72 h stood at 66.5 µM. The “Ratio CC50/IC50” value in series [3] and in series [5] was less than 13.3 in each case.

`O=[N+]([O-])C1=C(NCCc2ccccc2)Oc2ccccc2C1c1ccc(N2CCN(c3ccnc4cc(Cl)ccc34)CC2)cc1` (stereo not drawn): the IC50 is 3.31 µM with Plasmodium falciparum [1] and 1.74 µM in the series on Plasmodium falciparum [4]. In series [2], this compound returned a 50% cytotoxic concentration (CC50) at 72 h of 131 µM. In addition, the “Ratio CC50/IC50” value in series [3] is reported as 39.6; in series [5] it was 75.5.

As to `CNC1=C([N+](=O)[O-])C(c2ccc(N3CCN(c4ccnc5cc(Cl)ccc45)CC3)cc2)c2c(C=O)c(C)cc(Cl)c2O1` (stereo not drawn), the IC50 is 2.34 µM in the series with Plasmodium falciparum [1] and 0.87 µM in the series with Plasmodium falciparum [4]. Moreover, in series [2], the 50% cytotoxic concentration (CC50) at 72 h amounted to 84 µM. Further, the “Ratio CC50/IC50” value was 35.8 in series [3] and 96.5 in series [5].

For the compound `CCCCNC1=C([N+](=O)[O-])C(c2ccc(N3CCN(c4ccnc5cc(Cl)ccc45)CC3)cc2)c2ccccc2O1` (stereo not drawn), the results for the half-maximal inhibitory concentration (IC50) with Plasmodium falciparum [1] and with Plasmodium falciparum [4] were 3.09 µM and 3.57 µM, respectively. The cytotoxic concentration (CC50) at 72 h in series [2] is 107 µM. For the same compound, the “Ratio CC50/IC50” value in series [3] was 34.6; in series [5] it was 29.9.

For `CNC1=C([N+](=O)[O-])C(c2ccc(N3CCCN(c4ccnc5cc(Cl)ccc45)CC3)cc2)c2cc(Cl)ccc2O1` (stereo not drawn), the figures for the concentration for half-maximal inhibition (IC50) in the series with Plasmodium falciparum [1] and with Plasmodium falciparum [4] were 0.29 µM and 0.496 µM, respectively. In addition, in series [2], half-maximal cytotoxicity (CC50 at 72 h) was put at 77 µM. The results for the “Ratio CC50/IC50” value in series [3] and in series [5] were 265.4 and 155.2, respectively.

On to `Clc1ccc2c(N3CCCN(c4ccccc4)CC3)ccnc2c1`, for which the values for the IC50 in the series on Plasmodium falciparum [1] and in the series on Plasmodium falciparum [4] were 3.98 µM and 4.47 µM, respectively. In series [2], this compound displayed a 50% cytotoxic concentration (CC50) at 72 h of 148 µM. The entries for the “Ratio CC50/IC50” value in series [3] and in series [5] were 37.1 and 33.1, respectively.

Take `CCOc1cccc2c1OC(NC)=C([N+](=O)[O-])C2c1ccc(N2CCN(c3ccnc4cc(Cl)ccc34)CC2)cc1` (stereo not drawn): the half-maximal inhibitory concentration (IC50) amounted to 2.93 µM with Plasmodium falciparum [1] and 2.95 µM in the series with Plasmodium falciparum [4]. This compound also showed a CC50 at 72 h in series [2] of 40.4 µM. Moreover, the figures for the “Ratio CC50/IC50” value in series [3] and in series [5] were 13.7 and 13.6, respectively.

Consider `Clc1ccc2c(N3CCN(c4ccccc4)CC3)ccnc2c1`, for which the values for the IC50 with Plasmodium falciparum [1] and with Plasmodium falciparum [4] were 2.69 µM and 2.49 µM, respectively. In series [2], the midpoint of cytotoxicity, the CC50 at 72 h, lay at 179 µM. The “Ratio CC50/IC50” value was determined as 66.3 in series [3] and 71.7 in series [5].

As to `CNC1=C([N+](=O)[O-])C(c2ccc(N3CCN(c4ccnc5cc(Cl)ccc45)CC3)cc2)c2cc(OC)ccc2O1` (stereo not drawn), the IC50 is 2.48 µM in the series on Plasmodium falciparum [1] and 4.25 µM in the series with Plasmodium falciparum [4]. In series [2], this compound showed a CC50 at 72 h of 81.9 µM. For the same compound, the “Ratio CC50/IC50” value in series [3] came out at 33; in series [5], 19.3.

For the compound `CNC1=C([N+](=O)[O-])C(c2ccc(N3CCN(c4ccnc5cc(Cl)ccc45)CC3)cc2)c2cc(Cl)ccc2O1` (stereo not drawn), the IC50 is 1.37 µM in the series with Plasmodium falciparum [1] and 2.99 µM in the series with Plasmodium falciparum [4]. Moreover, in series [2], it took 74.5 µM to reach half-maximal cytotoxicity (CC50 at 72 h). The “Ratio CC50/IC50” value in series [3] came out at 54.3; in series [5], 24.9.

As for `CNC1=C([N+](=O)[O-])C(c2ccc(N3CCN(c4ccnc5cc(Cl)ccc45)CC3)cc2)c2cc(Cl)cc(Cl)c2O1` (stereo not drawn), the half-inhibitory concentration (IC50) is 3.92 µM with Plasmodium falciparum [1] and 1.45 µM with Plasmodium falciparum [4]. Also, in series [2], the CC50 at 72 h came to 97.8 µM. In addition, the entries for the “Ratio CC50/IC50” value in series [3] and in series [5] were 24.9 and 67.4, respectively.

For the compound `CNC1=C([N+](=O)[O-])C(c2ccc(N3CCCN(c4ccnc5cc(Cl)ccc45)CC3)cc2)c2cc(Br)ccc2O1` (stereo not drawn), the figures for the IC50 in the series with Plasmodium falciparum [1] and in the series with Plasmodium falciparum [4] were 2.24 µM and 1.27 µM, respectively. For the same compound, in series [2], the cytotoxic concentration (CC50) at 72 h was more than 200 µM. In addition, the “Ratio CC50/IC50” value in series [3] is more than 89.3; in series [5] it was more than 157.5.

Values taken from ChEMBL document CHEMBL3616449, “Synthesis, in vitro and in silico antimalarial activity of 7-chloroquinoline and 4H-chromene conjugates” (Bioorg Med Chem Lett, 2015).
